According to US12371454B2, “Cyclic peptide compound having Kras inhibitory action” (priority 2019, dated 2025):
Starred links: 1 amine or outer side, 2 acyl side, 3 side chain; linkers in the order of their positions; H or OH if unused. Positions of bridges follow the written chain, without caps; N, C: chain ends. Non-standard residues stand in square brackets, D forms with d. Residues, ends and D or L forms follow the SMILES beside them. *: point of attachment. hPhe(3-Cl-4-CF3) = N[C@@H](CCc1ccc(C(F)(F)F)c(Cl)c1)C(=O)O; NMeDab(N,N-(CH2CF2CH2)) = CN[C@@H](CCN1CC(F)(F)C1)C(=O)O; hPhe(3-F,4-CF3) = N[C@@H](CCc1ccc(C(F)(F)F)c(F)c1)C(=O)O; X23 = CN([C@@H](Cc1ccccc1OC(F)(F)F)C(=O)[*:2])[*:1]; NMePhe(4-Cl) = CN[C@@H](Cc1ccc(Cl)cc1)C(=O)O; X35 = CN([C@@](C)(Cc1ccccc1)C(=O)[*:2])[*:1]; NMePhe(3-F) = CN[C@@H](Cc1cccc(F)c1)C(=O)O; hPhe(4-Cl) = N[C@@H](CCc1ccc(Cl)cc1)C(=O)O; NMedβ3hAla = C[C@H](CC(=O)[*:2])N(C)[*:1]; Abu(4,4,4-F3) = N[C@@H](CC(F)(F)F)C(=O)O; NMeGly(cPent) = CN[C@H](C(=O)O)C1CCCC1; Phe(3-I) = N[C@@H](Cc1cccc(I)c1)C(=O)O; Pro(4,4-F2) = O=C(O)[C@@H]1CC(F)(F)CN1; NMeY = CN[C@@H](Cc1ccc(O)cc1)C(=O)O; NMeCha = CN[C@@H](CC1CCCCC1)C(=O)O; Azetidine(3,3-F2) = FC1(F)CN(*)C1; N(CH2CH2)2CF2 = FC1(F)CCN(*)CC1; Gly(cPr) = N[C@H](C(=O)O)C1CC1; NMeD = CN[C@@H](CC(=O)O)C(=O)O; NMeL = CN[C@@H](CC(C)C)C(=O)O; NPrAla = CCCN[C@@H](C)C(=O)O; NMeV = CN[C@H](C(=O)O)C(C)C; d(β3hA) = C[C@@H](N)CC(=O)O; Morpholide = C1CN(*)CCO1; NMeA = CN[C@@H](C)C(=O)O; NMeAib = CNC(C)(C)C(=O)O; Nle = CCCC[C@H](N)C(=O)O; Piperidide = C1CCN(*)CC1; Pyrrolidide = C1CCN(*)C1; dNMeA = CN[C@H](C)C(=O)O; Ac5c = NC1(C(=O)O)CCCC1; Aze = O=C(O)[C@@H]1CCN1; NBuGly = CCCCNCC(=O)O; NPrGly = CCCNCC(=O)O; Sar = CNCC(=O)O; Propyl = CCC*

Molecular target: T1, Kras and SOS1 (biotin-tagged human Kras loaded with GDP, His-tagged human SOS1) (Homo sapiens, UniProt P01116, G12D)
T1 construct: made in house; host or cells: E. coli (stated for Kras only)
T1 sequence (P01116 1-188 isoform P01116-2 G12D): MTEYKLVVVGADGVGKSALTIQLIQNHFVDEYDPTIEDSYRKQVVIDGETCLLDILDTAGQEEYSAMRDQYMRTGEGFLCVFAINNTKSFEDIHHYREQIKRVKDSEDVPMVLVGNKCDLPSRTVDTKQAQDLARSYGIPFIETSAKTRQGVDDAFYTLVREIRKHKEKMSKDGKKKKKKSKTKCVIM
Assay: Protein-protein interaction inhibition between Kras and SOS1 (KrasGl2D-SOS PPI) using AlphaScreen
Format: binding
Conditions: AlphaScreen; biotin-tagged human Kras loaded with GDP, His-tagged human SOS1; read-out: KRAS G12D-SOS PPI IC50
Method: Protein-Protein Interaction Inhibition Between Kras and SOS1 (KrasGl2D-SOS PPI) Using AlphaScreen
Protein-protein interaction inhibition (PPI) between Kras and SOS1 was measured by energy transfer from nickel-conjugated donor beads to streptavidin-conjugated acceptor beads using biotin-tagged human Kras expressed in E. coli and loaded with GDP after purification and His-tagged human SOS1 enzyme. This measurement utilizes the phenomenon in which donor beads are irradiated with light at 680 nm, such that energy is transferred to acceptor beads through singlet oxygen and light at 520-620 nm is detected from the acceptor beads.
Inhibition of binding between K-ras and SOS1 is known to inhibit signaling downstream of Kras.

CC[C@H](C)[C@@H]1NC(=O)[C@H](CC(C)C)N(C)C(=O)C[C@@H](C(=O)N(C)C)N(C)C(=O)[C@H](C2CCCC2)N(C)C(=O)C2(CCCC2)NC(=O)[C@H](Cc2cccc(F)c2)N(C)C(=O)[C@H](CCc2ccc(C(F)(F)F)c(Cl)c2)NC(=O)CN(C)C(=O)[C@H](CC2CCCCC2)N(C)C(=O)[C@@H]2CCN2C(=O)[C@H](C)N(C)C1=O [Compound 95] ([NMeL]I[NMeA][Aze][NMeCha][Sar][hPhe(3-Cl-4-CF3)][NMePhe(3-F)][Ac5c][NMeGly(cPent)][NMeD]-NMe2; lactam N-11)
IC50: 11 nM

CC[C@H](C)[C@@H]1NC(=O)[C@H](CC(C)C)N(C)C(=O)C[C@@H](C(=O)N2CCCC2)NC(=O)[C@H](CC(C)C)NC(=O)C(C)(C)N(C)C(=O)[C@H](CC(C)C)NC(=O)[C@H](CCc2ccc(C(F)(F)F)c(F)c2)NC(=O)CN(C)C(=O)[C@H](Cc2ccc(Cl)cc2)N(C)C(=O)CN(C)C(=O)CN(C)C1=O [Compound 96] ([NMeL]I[Sar][Sar][NMePhe(4-Cl)][Sar][hPhe(3-F,4-CF3)]L[NMeAib]LD-Pyrrolidide; lactam N-11)
IC50: 220 nM

CC[C@H](C)[C@@H]1NC(=O)[C@H](C)N(C)C(=O)C[C@@H](C)NC(=O)[C@H](C2CCCC2)N(C)C(=O)C2(CCCC2)NC(=O)[C@@H]2CCCN2C(=O)[C@H](CCc2ccc(C(F)(F)F)c(Cl)c2)NC(=O)[C@@H](C)N(C)C(=O)[C@H](CC(C)C)N(C)C(=O)[C@@H]2CCN2C(=O)[C@H](C)N(C)C1=O [Compound 98] (cyclo([Ac5c][NMeGly(cPent)][d(β3hA)][NMeA]I[NMeA][Aze][NMeL][dNMeA][hPhe(3-Cl-4-CF3)]P))
IC50: 68 nM

CC(C)C[C@H]1C(=O)N[C@@H](C2CC2)C(=O)N(C)CC(=O)N(C)CC(=O)N(C)[C@@H](CC2CCCCC2)C(=O)N(C)CC(=O)N[C@@H](CCc2ccc(C(F)(F)F)c(Cl)c2)C(=O)N2CCC[C@H]2C(=O)NC2(CCCC2)C(=O)N(C)[C@@H](C(C)C)C(=O)N[C@H](C)CC(=O)N1C [Compound 101] (cyclo([Ac5c][NMeV][d(β3hA)][NMeL][Gly(cPr)][Sar][Sar][NMeCha][Sar][hPhe(3-Cl-4-CF3)]P))
IC50: 160 nM

CC[C@H](C)[C@@H]1NC(=O)[C@H](CC(C)C)N(C)C(=O)C[C@@H](C(=O)N(C)C)N(C)C(=O)[C@H](C2CCCC2)N(C)C(=O)[C@H](C(C)C)NC(=O)[C@H](C)N(C)C(=O)[C@H](CCc2ccc(C(F)(F)F)c(Cl)c2)NC(=O)CN(C)C(=O)[C@H](CC2CCCCC2)N(C)C(=O)[C@@H]2CCN2C(=O)[C@H](C)N(C)C1=O [Compound 102] ([NMeL]I[NMeA][Aze][NMeCha][Sar][hPhe(3-Cl-4-CF3)][NMeA]V[NMeGly(cPent)][NMeD]-NMe2; lactam N-11)
IC50: 11 nM

CC[C@H](C)[C@@H]1NC(=O)[C@H](CC(C)C)N(C)C(=O)C[C@@H](C(=O)N(C)C)N(C)C(=O)[C@H](C2CCCC2)N(C)C(=O)[C@H](CC(F)(F)F)NC(=O)[C@H](CCN2CC(F)(F)C2)N(C)C(=O)[C@H](CCc2ccc(C(F)(F)F)c(Cl)c2)NC(=O)CN(C)C(=O)[C@H](CC2CCCCC2)N(C)C(=O)[C@@H]2CCN2C(=O)[C@H](C)N(C)C1=O [Compound 104] ([NMeL]I[NMeA][Aze][NMeCha][Sar][hPhe(3-Cl-4-CF3)][NMeDab(N,N-(CH2CF2CH2))][Abu(4,4,4-F3)][NMeGly(cPent)][NMeD]-NMe2; lactam N-11)
IC50: 28 nM

CC[C@H](C)[C@@H]1NC(=O)[C@H](CC(C)C)N(C)C(=O)C[C@@H](C(=O)N2CCOCC2)N(C)C(=O)[C@H](C2CCCC2)N(C)C(=O)C2(CCCC2)NC(=O)[C@H](CC(=O)N2CCC(F)(F)CC2)N(C)C(=O)[C@H](CCc2ccc(C(F)(F)F)c(Cl)c2)NC(=O)CN(C)C(=O)[C@H](CC2CCCCC2)N(C)C(=O)[C@@H]2CCN2C(=O)[C@H](C)N(C)C1=O [Compound 105] ([NMeL]I[NMeA][Aze][NMeCha][Sar][hPhe(3-Cl-4-CF3)][NMeD](N(CH2CH2)2CF2)[Ac5c][NMeGly(cPent)][NMeD]-Morpholide; lactam N-11)
IC50: 5.3 nM

CC[C@H](C)[C@@H]1NC(=O)[C@H](CC(C)C)N(C)C(=O)C[C@@H](C)N(C)C(=O)[C@H](C2CCCC2)N(C)C(=O)C2(CCCC2)NC(=O)[C@@H]2CC(F)(F)CN2C(=O)[C@H](CCc2ccc(C(F)(F)F)c(Cl)c2)NC(=O)CN(C)C(=O)[C@H](CC2CCCCC2)N(C)C(=O)CN(C)C(=O)CN(C)C1=O [Compound 107] (cyclo([Ac5c][NMeGly(cPent)][NMedβ3hAla][NMeL]I[Sar][Sar][NMeCha][Sar][hPhe(3-Cl-4-CF3)][Pro(4,4-F2)]))
IC50: 4 nM

CC[C@H](C)[C@@H]1NC(=O)[C@H](C)N(C)C(=O)C[C@@H](C)NC(=O)[C@H](C2CCCC2)N(C)C(=O)C2(CCCC2)NC(=O)[C@@H]2CCCN2C(=O)[C@H](CCc2ccc(C(F)(F)F)c(Cl)c2)NC(=O)[C@@H](C)N(C)C(=O)[C@H](C(C)C)N(C)C(=O)CN(C)C(=O)CN(C)C1=O [Compound 109] (cyclo([Ac5c][NMeGly(cPent)][d(β3hA)][NMeA]I[Sar][Sar][NMeV][dNMeA][hPhe(3-Cl-4-CF3)]P))
IC50: 40 nM

CCCC[C@@H]1NC(=O)[C@H](Cc2cccc(I)c2)NC(=O)CN(C)C(=O)[C@H](Cc2ccc(Cl)cc2)N(C)C(=O)CN(C)C(=O)CN(C)C(=O)[C@H]([C@@H](C)CC)NC(=O)[C@H](CC(C)C)N(C)C(=O)C[C@@H](C(=O)N2CCCCC2)N(C)C(=O)[C@H](CC(C)C)NC(=O)[C@H](Cc2ccccc2OC(F)(F)F)N(C)C1=O [Compound 111] ([NMeL]I[Sar][Sar][NMePhe(4-Cl)][Sar][Phe(3-I)][Nle][X23]L[NMeD]-Piperidide; lactam N-11)
IC50: 100 nM

CC[C@H](C)[C@@H]1NC(=O)[C@H](CC(C)C)N(C)C(=O)C[C@@H](C(=O)N2CCCCC2)N(C)C(=O)[C@H](C(C)C)N(C)C(=O)C2(CCCC2)NC(=O)[C@@H]2CCCN2C(=O)[C@H](CCc2ccc(Cl)cc2)NC(=O)CN(C)C(=O)[C@H](CC2CCCCC2)N(C)C(=O)CN(C)C(=O)[C@@H]2CCN2C1=O [Compound 112] ([NMeL]I[Aze][Sar][NMeCha][Sar][hPhe(4-Cl)]P[Ac5c][NMeV][NMeD]-Piperidide; lactam N-11)
IC50: 73 nM

CCCN1C(=O)C[C@@H](C)NC(=O)[C@H](C(C)C)N(C)C(=O)C2(CCCC2)NC(=O)[C@@H]2CCCN2C(=O)[C@H](CCc2ccc(C(F)(F)F)c(Cl)c2)NC(=O)CN(C)C(=O)[C@H](CC2CCCCC2)N(C)C(=O)CN(C)C(=O)CN(C)C(=O)[C@H]([C@@H](C)CC)NC(=O)[C@@H]1C [Compound 114] (cyclo([Ac5c][NMeV][d(β3hA)][NPrAla]I[Sar][Sar][NMeCha][Sar][hPhe(3-Cl-4-CF3)]P))
IC50: 20 nM

CCCN1CC(=O)N(C)CC(=O)N(C)[C@@H](CC2CCCCC2)C(=O)N(C)CC(=O)N[C@@H](CCc2ccc(C(F)(F)F)c(Cl)c2)C(=O)N2CCC[C@H]2C(=O)NC2(CCCC2)C(=O)N(C)[C@@H](C(C)C)C(=O)N[C@H](C)CC(=O)N(C)[C@@H](CC(C)C)C(=O)N[C@@H]([C@@H](C)CC)C1=O [Compound 116] (cyclo([Ac5c][NMeV][d(β3hA)][NMeL]I[NPrGly][Sar][NMeCha][Sar][hPhe(3-Cl-4-CF3)]P))
IC50: 140 nM

CCCCN1CC(=O)N(C)CC(=O)N(C)[C@@H](CC2CCCCC2)C(=O)N(C)CC(=O)N[C@@H](CCc2ccc(C(F)(F)F)c(Cl)c2)C(=O)N2CCC[C@H]2C(=O)NC2(CCCC2)C(=O)N(C)[C@@H](C(C)C)C(=O)N[C@H](C)CC(=O)N(C)[C@@H](CC(C)C)C(=O)N[C@@H]([C@@H](C)CC)C1=O [Compound 123] (cyclo([Ac5c][NMeV][d(β3hA)][NMeL]I[NBuGly][Sar][NMeCha][Sar][hPhe(3-Cl-4-CF3)]P))
IC50: 170 nM

CCCC[C@@H]1NC(=O)[C@H](Cc2cccc(I)c2)NC(=O)CN(C)C(=O)[C@H](Cc2ccc(OC)cc2)N(C)C(=O)CN(C)C(=O)CN(C)C(=O)[C@H]([C@@H](C)CC)NC(=O)[C@H](CC(C)C)N(C)C(=O)C[C@@H](C(=O)N2CCCCC2)N(C)C(=O)[C@H](CC(C)C)NC(=O)[C@](C)(Cc2ccccc2)N(C)C1=O [Compound 125] ([NMeL]I[Sar][Sar][NMeY](Me)[Sar][Phe(3-I)][Nle][X35]L[NMeD]-Piperidide; lactam N-11)
IC50: 2.8 nM

CCCOC[C@@H]1NC(=O)[C@H](CC(=O)N2CC(F)(F)C2)N(C)C(=O)[C@H](CCc2ccc(C(F)(F)F)c(Cl)c2)NC(=O)CN(C)C(=O)[C@H](CC2CCCCC2)N(C)C(=O)CN(C)C(=O)CN(C)C(=O)[C@H]([C@@H](C)CC)NC(=O)[C@H](C)N(C)C(=O)C[C@@H](C(=O)N2CCCCC2)N(C)C(=O)[C@H](C(C)C)N(C)C1=O [Compound 129] ([NMeA]I[Sar][Sar][NMeCha][Sar][hPhe(3-Cl-4-CF3)][NMeD](Azetidine(3,3-F2))S(Propyl)[NMeV][NMeD]-Piperidide; lactam N-11)
IC50: 11 nM

CC[C@H](C)[C@@H]1NC(=O)[C@H](CC(C)C)N(C)C(=O)C[C@@H](C(=O)N(C)C)N(C)C(=O)[C@H](C2CCCC2)N(C)C(=O)[C@H](COC)NC(=O)[C@H](CCN2CC(F)(F)C2)N(C)C(=O)[C@H](CCc2ccc(C(F)(F)F)c(Cl)c2)NC(=O)CN(C)C(=O)[C@H](CC2CCCCC2)N(C)C(=O)[C@@H]2CCN2C(=O)[C@H](C)N(C)C1=O [Compound 130] ([NMeL]I[NMeA][Aze][NMeCha][Sar][hPhe(3-Cl-4-CF3)][NMeDab(N,N-(CH2CF2CH2))]S(Me)[NMeGly(cPent)][NMeD]-NMe2; lactam N-11)
IC50: 10 nM
